Literature values, collected in paper PMC8373983, “Effect of salinity on the zinc(II) binding efficiency of siderophore functional groups and implications for salinity tolerance mechanisms in barley” (Scientific Reports, 2021).
Read-outs that look alike come from different tables or passages of the source.

Tests used:
[1] = cited from earlier work
[2] = design: method as in earlier work; settings: cited from earlier work
[3] = parameter of ionic strength dependence

For `CC(=O)N(O)CCCCCNC(=O)CCC(=O)N(O)CCCCCNC(=O)CCC(=O)N(O)CCCCCN` [DFOB, desferrioxamine B], the “log β, Zn2+ + 2H+ + L3- = ZnH2L+” value ([1]; 0.05 M NaCl, T = 298.1 K) is given as 29.30±0.13, the “log β, Zn2+ + H+ + L3- = ZnHL” value ([1]; 0.05 M NaCl, T = 298.1 K) is given as 21.55±0.11 and the “log β, Zn2+ + L3- = ZnL-” value ([1]; 0.05 M NaCl, T = 298.1 K) is given as 11.67±0.06. The “log β, Zn2+ + 2H+ + L3- = ZnH2L+” value ([1]; 0.15 M NaCl, T = 298.1 K) was 27.81±0.05, the “log β, Zn2+ + H+ + L3- = ZnHL” value ([1]; 0.15 M NaCl, T = 298.1 K) was 19.85±0.04 and the “log β, Zn2+ + L3- = ZnL-” value ([1]; 0.15 M NaCl, T = 298.1 K) was 9.91±0.02. For the same compound, the “log β, Zn2+ + 2H+ + L3- = ZnH2L+” value ([1]; 0.30 M NaCl, T = 298.1 K) was 27.42±0.08, the “log β, Zn2+ + H+ + L3- = ZnHL” value ([1]; 0.30 M NaCl, T = 298.1 K) was 19.85±0.06 and the “log β, Zn2+ + L3- = ZnL-” value ([1]; 0.30 M NaCl, T = 298.1 K) was 9.97±0.04. For the same compound, the “log β, Zn2+ + 2H+ + L3- = ZnH2L+” value ([1]; 0.70 M NaCl, T = 298.1 K) was 27.19±0.12, the “log β, Zn2+ + H+ + L3- = ZnHL” value ([1]; 0.70 M NaCl, T = 298.1 K) was 19.34±0.09 and the “log β, Zn2+ + L3- = ZnL-” value ([1]; 0.70 M NaCl, T = 298.1 K) was 9.39±0.05. For the same compound, the “log β, Zn2+ + 2H+ + L3- = ZnH2L+” value ([1]; 1.00 M NaCl, T = 298.1 K) was 27.25±0.08, the “log β, Zn2+ + H+ + L3- = ZnHL” value ([1]; 1.00 M NaCl, T = 298.1 K) was 19.38±0.06 and the “log β, Zn2+ + L3- = ZnL-” value ([1]; 1.00 M NaCl, T = 298.1 K) was 9.32±0.04. The “decrease of the 1:1 zinc(II) stability constant” value ([1]; between 0.05 and 1.00 M NaCl) was 21%, the “logβ0, Zn2+ + 2H+ + L3- = ZnH2L+” value ([1]; intrinsic, T = 298.1 K) was 29.872±0.027 and the “logβ0, Zn2+ + H+ + L3- = ZnHL” value ([1]; intrinsic, T = 298.1 K) was 22.105±0.026. The “logβ0, Zn2+ + L3- = ZnL-” value ([1]; intrinsic, T = 298.1 K) was 12.027±0.039, the “C, Zn2+ + 2H+ + L3- = ZnH2L+” value [1, 3] was 0.009±0.051 and the “C, Zn2+ + H+ + L3- = ZnHL” value [1, 3] was -0.075±0.053. For the same compound, the “C, Zn2+ + L3- = ZnL-” value [1, 3] was -0.486±0.077, the “log β, 2H+ + L3− = H2L−” value ([2]; 0.05 M NaCl, T = 298.1 K) was 20.94 ± 0.09 and the “log β, 3H+ + L3− = H3L” value ([2]; 0.05 M NaCl, T = 298.1 K) was 30.05 ± 0.12. The “log β, 4H+ + L3− = H4L+” value ([2]; 0.05 M NaCl, T = 298.1 K) was 38.83 ± 0.14, the “log β, H+ + L3− = HL2−” value ([2]; 0.05 M NaCl, T = 298.1 K) was 11.07 ± 0.07 and the “log β, 2H+ + L3− = H2L−” value ([2]; 0.15 M NaCl, T = 298.1 K) was 20.25 ± 0.06. The “log β, 3H+ + L3− = H3L” value ([2]; 0.15 M NaCl, T = 298.1 K) was 29.10 ± 0.09, the “log β, 4H+ + L3− = H4L+” value ([2]; 0.15 M NaCl, T = 298.1 K) was 37.46 ± 0.13 and the “log β, H+ + L3− = HL2−” value ([2]; 0.15 M NaCl, T = 298.1 K) was 10.74 ± 0.04. For the same compound, the “log β, 2H+ + L3− = H2L−” value ([2]; 0.30 M NaCl, T = 298.1 K) was 19.84 ± 0.04, the “log β, 3H+ + L3− = H3L” value ([2]; 0.30 M NaCl, T = 298.1 K) was 28.61 ± 0.07 and the “log β, 4H+ + L3− = H4L+” value ([2]; 0.30 M NaCl, T = 298.1 K) was 37.00 ± 0.10. The “log β, H+ + L3− = HL2−” value ([2]; 0.30 M NaCl, T = 298.1 K) was 10.36 ± .02, the “log β, 2H+ + L3− = H2L−” value ([2]; 0.70 M NaCl, T = 298.1 K) was 19.77 ± 0.04 and the “log β, 3H+ + L3− = H3L” value ([2]; 0.70 M NaCl, T = 298.1 K) was 28.60 ± 0.08. For the same compound, the “log β, 4H+ + L3− = H4L+” value ([2]; 0.70 M NaCl, T = 298.1 K) was 36.97 ± 0.16, the “log β, H+ + L3− = HL2−” value ([2]; 0.70 M NaCl, T = 298.1 K) was 10.35 ± 0.02 and the “log β, 2H+ + L3− = H2L−” value ([2]; 1.00 M NaCl, T = 298.1 K) was 19.77 ± 0.08. For the same compound, the “log β, 3H+ + L3− = H3L” value ([2]; 1.00 M NaCl, T = 298.1 K) was 28.57 ± 0.12, the “log β, 4H+ + L3− = H4L+” value ([2]; 1.00 M NaCl, T = 298.1 K) was 36.92 ± 0.14 and the “log β, H+ + L3− = HL2−” value ([2]; 1.00 M NaCl, T = 298.1 K) was 10.14 ± 0.06. For the same compound, the “logβ^0, 2H+ + L3− = H2L−” value ([2]; intrinsic, T = 298.1 K) was 21.530 ± 0.006, the “logβ^0, 3H+ + L3− = H3L” value ([2]; intrinsic, T = 298.1 K) was 30.691 ± 0.012 and the “logβ^0, 4H+ + L3− = H4L+” value ([2]; intrinsic, T = 298.1 K) was 39.250 ± 0.023. For the same compound, the “logβ^0, H+ + L3− = HL2−” value ([2]; intrinsic, T = 298.1 K) was 11.491 ± 0.003 and the “C, 3H+ + L3− = H3L” value [2, 3] was 0.194 ± 0.012.
